Laboratory results from publication PMC12977544, “Phenotypic high-throughput screening identifies modulators of gut microbial choline metabolism” (mBio, 2026).

Assay: Quantification of inhibitor 45 in serum and cecal contents of gnotobiotic mice (LC–MS/MS)
Type: in vivo, Mus musculus C57BL/6
Details: 24 h after inhibitor gavage
Method: Female C57BL/6 germ-free mice (n = 8 per inhibitor group), 10–12 weeks of age in an isolator, were colonized with 200 µL of mix containing the five bacterial species mentioned above at ~10^8 bacterial cells/mL. Mice were fed a 1% choline diet (Envigo) ad libitum. Two weeks after colonization, mice were administrated by gavage with 3 mg/kg of the inhibitor or vehicle between 6 and 8 a.m. once a day for three consecutive days. After a 10-day washout period, mice were orally administered 30 mg/kg of the inhibitor once a day (same time as above) for three consecutive days, and blood was collected 24 h after the last gavage.
A fecal sample was collected before the first gavage. At sacrifice, tissues collected were blood, cecal contents, a fecal pellet, proximal colon, distal small intestine, liver, and kidney. Mice were anesthetized with isoflurane and underwent cardiac puncture for a terminal blood draw, followed by cervical dislocation. Tissues were snap-frozen in liquid nitrogen. Blood was spun down at 8,000 × g for 8 min at room temperature; the resulting serum layer was removed and snap-frozen. All snap-frozen tissues were stored at −80°C until needed.
A standard curve of inhibitor 45 spiked in commercial mouse serum (Sigma) was prepared. To 50 µL of serum sample, 450 µL of a mixture 75% acetonitrile, 25% methanol, 1% formic acid was added to precipitate proteins. […]

Cc1ccc(-c2cc(C(=O)NCCCCCN3CCCCCC3)c(C)[nH]2)cc1C [Compound 45]
Concentration in wet cecal mass: 463 pmol/µg
concentration at 24 h (female, C57BL/6, mouse, serum, oral, 30 mg/kg, limit of detection 1 µM): < 1000 nM
